PMC11775033, “Toxicokinetics of benzotriazole UV stabilizer UV-P in humans after single oral administration” (Archives of Toxicology, 2024)
Where “and” joins values, the source holds several entries; their conditions need not be identical. Equal entries are not always repeated. Where two headings read alike, the source gives them in different places.

How the values were obtained:
[1] = human, cited from earlier work
[2] = cited from earlier work
[3] = design: method as in ref Arisu et al. [1992]; Björkner and Niklasson [1997]; Niklasson and Björkner [1989]; details: ref Arisu et al. [1992]; Björkner and Niklasson [1997]; Niklasson and Björkner [1989]; cited from earlier work
[4] = Renal excretion kinetics of UV-P in urine after single oral administration (human volunteer study); type: in vivo; details: for half-life: oral, 0.3 mg/kg body weight
Method: Three healthy volunteers (two men and one person) aged between 23 and 57 years were included in the study. […] The NOAEL was used as a starting point and a safety factor of 100 was applied. As a result, 0.3 mg/kg body weight was administered to each participant.
(§1) One blood and one urine sample were collected from each study participant prior to the oral administration of UV-P to determine potential background exposure. 14–27 mg of UV-P (see Table 1) were weighed onto a small piece of bread with butter, which was then consumed by the volunteers. From Subject 1, urine and blood samples were collected up to 72 h post-application. From the other two subjects, samples of urine and blood were collected up to 48 h post-application. The participants collected all urine voids in separate containers. Sampling times and volumes were recorded for each sample. The urine samples were aliquoted and stored at − 20 °C until analysis. 9 ml of blood were drawn from peripheral veins 1 h, 2 h, 3 h, 4 h, 5 h, 6 h, 10 h, 24 h, and 48 h after exposure and collected in EDTA-Monovettes®. From Subject 1, additional blood samples were drawn 8 h, 12 h, 32 h, and 72 h after exposure. Blood samples were stored at – 20 °C until analysis.
The preparation and processing of urine samples was based on a method published by Fischer and Göen ([2021]). However, a few modifications were made. The samples were thawed at room temperature, thoroughly mixed, and subsequently centrifuged at 1600 × g for 2 min. 200 µl of the supernatant were transferred into a 10-ml glass, conical-bottomed centrifuge tube. 800 µl of water, 10 µl of the internal-standard spiking solution (10 mg/l of d4-UV-P in acetonitrile), and 1 ml of sodium acetate buffer (0.4 M, pH 5.0) were added to the samples. After vortex-mixing, 10 µl of β-glucuronidase/arylsulfatase from H. pomatia were added and the samples were briefly vortex-mixed. Enzymatic hydrolysis was performed at 37 °C for 16 h. Afterwards, 2 ml of water, 700 µl of isopropanol, and 400 µl of chloroform were added. The samples were vortex-mixed for 30 s and centrifuged at 2300 × g for 15 min. The lower organic phases were pipetted into 1.8-ml glass vials and evaporated to dryness, followed by the addition of 40 µl of toluene and 40 µl of BSA/TMCS. The samples were vortex-mixed and derivatized at room temperature for 10 min. Afterwards, 20 µl of 5% (v/v) TSIM were added. The samples were vortex-mixed and transferred into the micro-inserts of 1.8-ml glass vials. Finally, the samples were heated to 40 °C for 1 h and analyzed by GC–MS/MS.
A nine-point calibration curve in the range of 10–5000 µg/l was applied for the analysis of the in vivo study samples. For calibration, two analyte spiking solutions containing 50 mg/l and 2 mg/l of UV-P were prepared in acetonitrile.
The urinary creatinine content of the study samples was determined photometrically by the Jaffé’s method (Larsen [1972]). To quantify the unconjugated form of UV-P, the urine samples of one study participant were additionally processed without the addition of β-glucuronidase/arylsulfatase from H. pomatia and incubation at 37 °C.
Renal excretion rates (RE, in µg/h) of UV-P at a certain point in time were calculated by the following equation: RE=ci×vi/ti-ti-1 where ci (in µg/l) is the concentration of UV-P in the urine sample i, vi (in l) is the volume of the respective urine sample, ti (in h) is the elapsed time value of sample collection, and ti–1 (in h) is the elapsed time value of the previous sample collection.

[5] = design: method as in ref Fent et al. [2014]; Zhuang et al. [2017]; Sakuragi et al. [2021]; details: in vivo studies; ref Fent et al. [2014]; Zhuang et al. [2017]; Sakuragi et al. [2021]; cited from earlier work
[6] = system: aryl hydrocarbon receptor; design: method as in ref Fent et al. [2014]; Kubota et al. [2022]; Liang et al. [2023]; Nagayoshi et al. [2015]; details: ref Fent et al. [2014]; Kubota et al. [2022]; Liang et al. [2023]; Nagayoshi et al. [2015]; cited from earlier work
rats = system: rats; design: method as in OECD [2017]; details: ref OECD [2017]; cited from earlier work
human serum albumin = system: human serum albumin; design: method as in Zhuang et al. [2016]; details: ref Zhuang et al. [2016]; cited from earlier work
[7] = Kinetics of UV-P in blood after single oral administration (human volunteer study); type: in vivo; details: for half-life: po, 0.3 mg/kg; for Tmax: oral, post-exposure, read-out: time of maximum blood levels
Method: Three healthy volunteers (two men and one person) aged between 23 and 57 years were included in the study. The administered dose of UV-P was calculated with respect to an adequate distance from the no-observed-adverse-effect level (NOAEL) determined in toxicological studies in rats (30 mg/kg body weight per day) (OECD [2017]). The NOAEL was used as a starting point and a safety factor of 100 was applied. As a result, 0.3 mg/kg body weight was administered to each participant.
as §1
The preparation and processing of the blood samples was based on a previously published method (Fischer and Göen [2023]). The samples were stored at – 20 °C until analysis. The samples were thawed at room temperature and mixed on a roller mixer. 1 ml of each sample was pipetted into a separate 6-ml glass vial. 20 µl of the d4-UV-P spiking solution [1000 µg/l of d4-UV-P in a mixture of 0.9% NaCl solution and acetonitrile (v/v, 9:1)] was added. 1 ml of acetonitrile was added to the samples, which were then vortex-mixed for 1 min and centrifuged at 4000 × g for 15 min at room temperature. The supernatants were transferred to clean 6-ml glass vials. 0.5 ml of sodium acetate buffer (0.4 M, pH 5.0) and 10 µl of β-glucuronidase/arylsulfatase from H. pomatia were added. After brief vortex-mixing, the samples were incubated at 37 °C for 16 h. After incubation, the samples were transferred to conical-bottomed centrifuge tubes and diluted with 2.5 ml of water. 1 ml of acetonitrile and 700 µl of chloroform were added and the samples were vortex-mixed for 30 s and centrifuged at 2500 × g for 15 min. The lower organic phases were pipetted into separate 1.8-ml glass vials and evaporated to dryness, followed by the addition of 40 µl of toluene and 40 µl of BSA/TMCS. The samples were vortex-mixed and derivatized at room temperature for 10 min. Afterwards, 20 µl of 5% (v/v) TSIM were added. The samples were vortex-mixed and transferred into the micro-inserts of 1.8-ml glass vials. Finally, the samples were heated to 40 °C for 1 h and analyzed by GC–MS/MS.
A seven-point calibration curve in the range of 0.5–150 µg/l was applied. Calibration standards were prepared by spiking human blood with various volumes of the UV-P spiking solutions containing 1000 µg/l or 100 µg/l of UV-P in a mixture of 0.9% NaCl solution and acetonitrile (v/v, 9:1). One sample each of Qlow (low-concentration quality-control material; 1 µg/l) and Qhigh (high-concentration quality-control material; 30 µg/l) was processed analogously to the samples in each analytical run. A reagent-blank sample, containing water instead of blood, was included in each analytical run as well. Any blank values were subtracted from the analytical results. The reliability criteria of the method are given in the Supplementary Information. […]

For `CC(C)(C)c1cc(-n2nc3ccc(Cl)cc3n2)c(O)c(C(C)(C)C)c1` [UV-327], the “time of maximum concentrations in blood (average)” value ([1]; in vivo, po) is listed as 6 h and the “sum of renally eliminated parent compound and metabolites” value ([2]; in vivo) is listed as 0.03%.

For `CCC(C)(C)c1cc(-n2nc3ccccc3n2)c(O)c(C(C)(C)CC)c1` [UV-328, 2-(2H-benzotriazol-2-yl)-4,6-di-tert-pentylphenol], the “time of maximum concentrations in blood (average)” value ([1]; after oral administration, ref Fischer et al. [2023], Denghel et al. [2021]) is given as 8 h, the “share of ingested amount excreted via urine as parent compound” value ([2]; accumulated until 72 h post-exposure, ref Denghel et al. [2021], Fischer et al. [2023]) is given as 0.001% and the “share of conjugation of renally eliminated compound” value ([2]; human urine, ref Denghel et al. [2021], Fischer et al. [2023]) is given as 16%. For the same compound, the “sum of renally eliminated parent compound and metabolites” value ([2]; share of ingested amount, ref Denghel et al. [2021], Fischer et al. [2023]) was 0.12%.

In the case of `Cc1ccc(O)c(-n2nc3ccccc3n2)c1` [UV-P, 2-(2H-Benzotriazol-2-yl)-p-cresol], the allergic contact dermatitis [3] is given as “cause allergic contact dermatitis”, the “orally administered dose recovered in urine within 72 h” value ([4]; Subject 1 only, 72 h) is given as 44.9% and the “time at which cumulative amount excreted via urine reached a plateau” value ([4]; after exposure, Subject 1 (Figure SI-3)) is given as “about 24 h”. For the same compound, the half-life ([4]; both sexes, human, urine, human urine, first phase until 7 h post-administration, n = 3, mean ± SD (range), read-out: t1/2—Phase 1 (renal excretion) (converted)) was 0.7 ± 0.2 h, the half-life ([4]; both sexes, human, urine, human urine, second elimination phase, n = 3, mean ± SD (range), read-out: t1/2—Phase 2 (renal excretion) (converted)) was 6.6 ± 1.1 h and the Tmax ([4]; both sexes, human, urine, po, 0.3 mg/kg, human urine, single oral 0.3 mg/kg, n = 3, mean ± SD (range), read-out: tmax (timepoint of maximum renal excretion rate)) was 3.5 ± 1.1 h. For the same compound, the “FUE after 6 h (urinary excretion factor, % of dose)” value ([4]; human urine, 6 h, n = 3, mean ± SD (range)) was 26.7–33.2%, the “FUE after 12 h (urinary excretion factor, % of dose)” value ([4]; human urine, 12 h, n = 3, mean ± SD (range)) was 30.4–40.2% and the “FUE after 24 h (urinary excretion factor, % of dose)” value ([4]; human urine, 24 h, n = 3, mean ± SD (range)) was 31.7–43.3%. The “FUE after 48 h (urinary excretion factor, % of dose)” value ([4]; human urine, 48 h, n = 3, mean ± SD (range)) was 37.2 ± 5.4% and 32.0–44.7% and 32–45% and 37%, the “REmax (maximum renal excretion rate)” value ([4]; human urine, single oral 0.3 mg/kg body weight, with enzymatic hydrolysis, n = 3, mean ± SD (range), 0.3 mg/kg) was 2896 ± 884 µg/h and 2896 ± 885 µg/h and the “tmax (timepoint of maximum renal excretion rate)” value ([4]; human urine, single oral 0.3 mg/kg, n = 3, mean ± SD (range), 0.3 mg/kg) was 2.6 to 5.0 h and 3 to 5 h. The “endocrine effects in vivo” value [5] was “no indication of endocrine effects”, the “activation of the aryl hydrocarbon receptor” value [6] was “activates” and the “no-observed-adverse-effect level (NOAEL)” value (rats) was 30 mg/kg body weight per day. For the same compound, the “binding to human serum albumin” value (human serum albumin) was “bind”, the half-life ([7]; both sexes, human, whole blood, human blood, single oral 0.3 mg/kg, first phase up to 6 h, n = 3, mean ± SD (range), read-out: t1/2—Phase 1 (blood) (converted)) was 1.3 ± 0.1 h and the half-life ([7]; both sexes, human, whole blood, human blood, single oral 0.3 mg/kg, second phase, n = 3, mean ± SD (range), read-out: t1/2—Phase 2 (blood) (converted)) was 7.7 ± 1.1 h. For the same compound, the concentration at 6 h ([7]; both sexes, human, whole blood, 6 h post-exposure, single oral 0.3 mg/kg, n = 3, read-out: mean blood level of UV-P) was 44 ± 30 ng/mL, the concentration at 24 h ([7]; both sexes, human, whole blood, 24 h post-exposure, single oral 0.3 mg/kg, n = 3, read-out: mean blood level of UV-P) was 2.5 ± 1.3 ng/mL and the concentration at 48 h ([7]; both sexes, human, whole blood, 48 h post-exposure, single oral 0.3 mg/kg, n = 3, read-out: mean blood level of UV-P) was 0.7 ± 0.7 ng/mL. For the same compound, the Cmax ([7]; both sexes, whole blood, human blood, single oral 0.3 mg/kg body weight, with enzymatic hydrolysis, n = 3, mean ± SD (range), read-out: cmax (maximum level of UV-P in blood)) was 184 ± 36 ng/mL, the concentration at 72 h ([7]; human, whole blood, 0.3 mg/kg body weight, 72 h after oral administration, Subject 1 only, read-out: blood level of UV-P) was 0.45 ng/mL and the Tmax ([7]; human, whole blood, 0.3 mg/kg body weight, third subject (Subject 1)) was 4 h. The Tmax ([7]; human, whole blood, 0.3 mg/kg body weight, two of the subjects (Subjects 2 and 3)) was 1 to 2 h, the “slope of linear fit, blood levels without vs with hydrolysis (unconjugated share)” value ([7]; subject 1) was 0.133 and the “slope of linear fit, blood levels without vs with hydrolysis (unconjugated share)” value ([7]; subject 2) was 0.196. For the same compound, the “slope of linear fit, blood levels without vs with hydrolysis (unconjugated share)” value ([7]; subject 3) was 0.135.
